Entries after “also recorded” stand apart in the source; their conditions may differ.
Experiments:
CNV lesions = test: Laser injury CNV model, CNV size in choroidal flat mounts; assay type: in vivo, Brown-Norway rats; conditions: rats
Description: For reverse transcription polymerase chain reaction (RT-PCR) detection and immunofluorescence staining of CB in the choroid, Lewis rats (8-10 weeks old, Charles River Laboratories, Inc., Wilmington, Mass.) were used. To generate CNV in the laser injury model, Brown-Norway rats (10-12 weeks old, Charles River Laboratories, Inc., Wilmington, Mass.) were used. Rats were housed in plastic cages in a climate controlled animal facility and were fed laboratory chow and water ad libitum. All animal experiments were conducted in accordance with the ARVO Statement for the Use of Animals in Ophthalmic and Vision Research.
(§1) Lewis rats were euthanized by overdose anesthesia and perfused with PBS (500 ml/kg body weight (BW)). Eyes were immediately enucleated and the retinal pigment epithelium (RPE)-choroid complex was obtained from the rat eyes and homogenized in extraction reagent (TRIzol Reagent; Invitrogen, Carlsbad, Calif.). […] PCR products were analyzed by electrophoresis in a 1.5% agarose gel and stained with ethidium bromide ([…]). The expected sizes of the amplified cDNA fragments of CB and GAPDH were 341 bp and 387 bp, respectively Band densities were quantified using NIH Image 1.41 software (available by ftp from zippy.nimh.nih.gov/or from the web site, rsb info.nih.gov/nih-image: developed by Wayne Rasband, National Institutes of Health, Bethesda, Md.). […]

[1] = test system: IL-1β-induced corneal lymphangiogenesis; test: IL-1β-induced corneal lymphangiogenesis (anti-LYVE-1 stain); assay type: in vivo, BALB/c mice; conditions: 0.3 mg/kg daily i.p.
Protocol: BALB/c mice were anesthetized by intraperitoneal (i.p.) injection of pentobarbital sodium (60 mg/kg). Hydron pellets (0.3 μl) containing 30 ng mouse IL-1β (401-ML, R&D Systems) were prepared and implanted into the corneas. Pellets were positioned 1 mm from the corneal limbus. Implanted eyes were treated with Bacitracin ophthalmic ointment (E. Fougera & Co.) to prevent infection.
To block CB, mice received daily i.p. injections of a specific CBD. Compound II (R-tech Ueno Ltd., Tokyo, Japan) as described above. A daily dose of 0.3 mg/kg was administered at day 0 and continued until the sixth day after implantation. Two, four and six days after implantation, digital images of the corneal vessels were obtained and recorded using OpenLab software version 2.2.5 (Improvision Inc.) with standardized illumination and contrast and were saved onto disks. The quantitative analysis of new vessel growth in the mouse corneas was performed using Scion Image software (version 4.0.2, Scion Corp.).
Eyes were enucleated and fixed with 4% paraformaldehyde for one hour at 4° C. For whole-mount preparation, the corneas were exposed by removing other portions of the eye (i.e iris, sclera, retina, and conjunctiva). […]

[2] = test system: vascular leakage from the CNV lesions; test: Laser injury CNV model, fluorescein angiography grading of leakage; assay type: in vivo, Brown-Norway rats; conditions: rats
Protocol: as §1, with “Calif.). As a control, the retinal tissues were separately obtained and processed. Total RNA was prepared according to the manufacturer's protocol, and equal amounts ([…]) of total RNA were reverse transcribed with a First-Strand cDNA synthesis kit (GE Healthcare, Buckinghamshire, UK) at 37° C. for 1 hour in a 15 μl reaction volume.” for “Calif.).”
Seven days after laser injury, vascular leakage from the CNV lesions was assessed using fluorescein angiography (FA), as described previously (Zambarakji et al. (2001) IOVS 42: 1553-60). […]

Structure (SMILES): CC(=O)Nc1nc(CCc2ccc(NC(=N)NN)cc2)c(Cc2ccc(S(C)(=O)=O)cc2)s1 [Compound II]
- effect on CNV / CNV size (in words) (CNV lesions): significantly decreased; also recorded: effectively suppresses CNV
- effect on corneal lymphangiogenesis (in words) [1]: effectively suppresses corneal lymphangiogenesis
- effect on fluorescent angiographic leakage (in words) [2]: significantly decreased
